# Laboratory results as given in patent publication US20140335050A1, “METHODS, COMPOSITIONS, AND KITS FOR THE TREATMENT OF CANCER” (The General Hospital Corporation, priority 2011, published 2014).
# Experiments:
# Format in all cases: cell-based, human
# A375 tumor cells = test: Western blot (BRAF, phosphorylated MEK and ERK)
# Procedure: FIG. 17 is a series of Western blots that show changes in protein levels and state of phosphorylation after treatment with an Hsp90 inhibitor. A primary Anti BRAF (H145) antibody was used at a 1:5000 dilution. A secondary Goat anti rabbit antibody was used at a dilution of 1:5000. 30 ug total protein was added to each well.
# Cell lysates were prepared using RIPA buffer from Santa Cruz (Santa Cruz, Calif.) containing protease and phosphatase inhibitors. Protein concentrations were determined using Bradford assay from BioRad (Hercules, Calif.). Equal amounts of protein were loaded in each well for PAGE analysis. Proteins were transferred to PVDF membranes from Pierce Biotechnology (Rockford, Ill.). Blocking and both primary and secondary antibody incubations were performed using Starting Block from Pierce (Rockford, Ill.). Blots were washed with 1×TBS with 0.5% tween 20. Primary antibodies used BRAF H-145 and TRP-2 from Santa Cruz (Santa Cruz, Calif.), and Phos ERK from Cell Signaling Technologies (Danvers, Mass.) beta actin from Sigma (St. Louis, Mo.). Goat anti-rabbit HRP conjugated secondary antibody was purchased from Pierce (Rockford, Ill.). Chemiluminesce was performed using the Femto kit form Pierce (Rockford, Ill.). […] Sizes of proteins were determined by comparison to the Broad prestained protein standard ladder from BioRad (Hercules, Calif.).
# [1] = system: MM96L+ melanoma cell line; test: Intracellular antibody staining and flow cytometry (Melan-A/MART-1, gp100/HMB45); details: MM96L+ (BRAF M/WT, NRAS WT); 3 days; 17-AEP 1.00, CCT018159 5.00, PU-H71 0.30 μg/ml
# Procedure: Several cell lines expressing varying native-sequences, (wild-type (WT) or mutant (M) alleles of these genes were evaluated), to determine if there is a relationship between levels of Hsp90 inhibitor-mediated antigen up-regulation and BRAF and NRAS mutational status. Mutant status of the NRAS and BRAF loci were determined previously.
# Cells were plated at a density of 1×10^5 in 1 ml of medium in a 24-well plate and cultured for varying times as indicated in results. Typically, 3 days of culture in the presence of Hsp90 inhibitors was optimal for the functional studies performed. After incubation, cells were collected by trypsinization and then evaluated by flow cytometry.
# Intracellular staining and flow cytometric analyses of cytoplasmic Melan-A/MART-1, and gp100 expression were performed as described previously. Cells were fixed with 1% formaldehyde, permeabilized with 0.1% saponin, stained with monoclonal antibodies to melanocyte antigens. Antibodies were obtained with specificity for: Melan-A/MART-1 from Vector Labs (Burlingame, Calif.); gp100/HMB45 from DakoCytomation (Carpinteria, Calif.) and then visualized with goat anti-mouse FITC-conjugated secondary antibody from Invitrogen (Frederick, Md.). The level of EGFP was determined by flow cytometry of unfixed cells washed and resuspended in 1×PBS. […]
# tumor cell lines = test: MHC Class I and Class II surface staining, statements over a panel of tumor cell lines; details: HeLa, MCF-7, U2-OS, MU-89, U118, Jurkat, Raji (Table 19)
# Procedure: (§1) For surface staining of HLA Class I and II antigens, cells were harvested using CellStripper™ from Mediatech (Manassas, Va.). All staining steps were performed on ice. Following a first incubation with antibody to Class I (W6/32) or Class II (L243) for 30 minutes. Stained cells were washed twice with cold PBS and then stained with a goat anti-mouse FITC secondary antibody to allow for quantitative analysis by flow cytometry. For evaluation of cytoplasmic antigens, including Melan-A/MART-1 and gp100, cells were first fixed in paraformaldehyde and permeabilized with saponin as previously described. Staining for cytoplasmic antigens was carried out at room temperature (22° C.).
# [2] = system: EBV-19 B cell lymphoma cells; test: Surface antibody staining and flow cytometry (MHC Class I/II); details: three days, IFN-β 5000 Units/ml
# Procedure: (§2) Intracellular staining and flow cytometric analyses of cytoplasmic Melan-A/MART-1, and gp100 expression were performed as described previously. Cells were fixed with 1% formaldehyde, permeabilized with 0.1% saponin, stained with monoclonal antibodies to melanocyte antigens. Antibodies were obtained with specificity for: Melan-A/MART-1 from Vector Labs (Burlingame, Calif.); gp100/HMB45 from DakoCytomation (Carpinteria, Calif.) and then visualized with goat anti-mouse FITC-conjugated secondary antibody from Invitrogen (Frederick, Md.). The level of EGFP was determined by flow cytometry of unfixed cells washed and resuspended in 1×PBS. Surface staining of MHC Class I was carried out using the antibody W6/32 on cells harvested with Cell Stripper from MediaTech Inc. (Manassas, Va.) and carried out on ice.
# as §1
# [3] = system: Jurkat T cell lymphoma cells; test: as above
# Procedure: as §2, §1
# U2-OS osteosarcoma cells = test: as above
# Procedure: as §2
# (§3) Cell were seeded at 1×10^6 cells in a T25 flask with 10 ml of media for the 4 day IFN-beta pre-treatments. Cells were then harvested and plated in 24 well plate at 1×10^5 cells per well in 1 ml of media for 3 day treatments.
# as §1
# [4] = system: MCF-7 breast cancer cells; test: as above
# Procedure: as §2, §3, §1
# [5] = system: Raji B cell lymphoma cells; test: as above
# Procedure: as §2, §3, §1
# [6] = system: HeLa cervical carcinoma cells; test: as above; details: for Class I MHC, geometric mean of surface staining (W6/32): 4 day IFN-β pre-treatment (5000 Units/ml), with PU-H71 0.3 where labelled (label IFN-β: no inhibitor)
# Procedure: as §2, §3, §1
# [7] = three days, IFN-β 5000 Units/ml, IFN-γ 100 ng/ml, PU-H71 0.3 mg/ml
# [8] = U2-OS cells, Table 20, single agent or simultaneous combination
# [9] = U2-OS, three days, IFN-β 5000 Units/ml, IFN-γ 100 ng/ml, PU-H71 0.3 mg/ml
# [10] = MCF-7 cells, Table 20, single agent or simultaneous combination
# [11] = HeLa cells, Table 20, single agent or simultaneous combination
structure (smiles),measurement,setting,value
CO[C@H]1/C=C\C=C(/C)C(=O)NC2=CC(=O)C(NCCN3CCCC3)=C(C[C@@H](C)C[C@H](OC)[C@H](O)[C@@H](C)/C=C(\C)[C@@H]1OC(N)=O)C2=O [17-AEP],BRAF protein level (Western blot),A375 tumor cells; 3 days,reduces levels of BRAF
same,Phosphorylated MEK and Phosphorylated ERK levels (Western blot),A375 tumor cells; 3 days (FIG. 17),decreased levels
CCc1cc(-c2n[nH]c(C)c2-c2ccc3c(c2)OCCO3)c(O)cc1O [CCT018159],"HMB45, level of induction relative to untreated control cells",[1],1.81
same,"MART-1, level of induction relative to untreated control cells",[1],3.04
CC(C)NCCCn1c(Sc2cc3c(cc2I)OCO3)nc2c(N)ncnc21 [PU-H71],Class II MHC expression over the tumor panel,tumor cell lines,no induction
same,"MHC Class II, geometric mean of surface staining (L2443)","[2]; IFN-γ 100 ng/ml, PU-H71 0.3 mg/ml",114
same,"MHC Class I, geometric mean of surface staining (W6/32)","[2]; IFN-γ 100 ng/ml, PU-H71 0.3",124
same,"MHC Class I, geometric mean of surface staining (W6/32)",[2]; PU-H71 0.075-0.3,119
same,L243 (MHC Class II surface staining),[3]; single agent,1.2
same,"MHC Class I, geometric mean of surface staining (W6/32)","[3]; three days, IFN-β 5000 Units/ml, IFN-γ 100 ng/ml, PU-H71 0.3 μg/ml",24
same,"MHC Class II, geometric mean of surface staining (L2443)",[3]; [7],1
same,"MHC Class I, geometric mean of surface staining (W6/32)","[3]; three days, IFN-β 5000 Units/ml, PU-H71 0.075-0.3 μg/ml",41
same,L243 (MHC Class II surface staining),U2-OS osteosarcoma cells; [8],1.9
same,W6/32 (MHC Class I surface staining),U2-OS osteosarcoma cells; [8],109.0
same,"Class I induction, combination","U2-OS osteosarcoma cells; U2-OS, PU-H71 in combination with interferons",highest levels are achieved
same,"Class II antigen induction seen with IFN-gamma, combination","U2-OS osteosarcoma cells; U2-OS, PU-H71 together with IFN-gamma",prevented
same,L243 (MHC Class II surface staining),"U2-OS osteosarcoma cells; U2-OS, single agent",1.8
same,"MHC Class I, geometric mean of surface staining (W6/32)",U2-OS osteosarcoma cells; [9],87
same,"MHC Class II, geometric mean of surface staining (L2443)",U2-OS osteosarcoma cells; [9],4
same,"MHC Class I, geometric mean of surface staining (W6/32)","U2-OS osteosarcoma cells; U2-OS, three days, IFN-β 5000 Units/ml, PU-H71 0.075-0.3 mg/ml",108
same,"Class I MHC, geometric mean of surface staining (W6/32)","[4]; MCF-7, 4 day IFN-β pre-treatment (5000 Units/ml), then 3 days with fresh IFN-β, with PU-H71 0.3 mg/ml where labelled (label IFN-β: no inhibitor)",213
same,"Class I MHC, geometric mean of surface staining (W6/32)","[4]; MCF-7, 4 day IFN-β pre-treatment (5000 Units/ml), then 3 days without IFN-β, with PU-H71 0.3 mg/ml where labelled (label IFN-β: no inhibitor)",227
same,"Class II induction, combination","[4]; MCF-7, PU-H71 and IFN-gamma",inhibited
same,"Class I stimulation induced with IFN-beta or IFN-gamma, combination","[4]; MCF-7, addition of PU-H71",diminished
same,L243 (MHC Class II surface staining),"[4]; MCF-7, single agent",4.7
same,"Class I MHC, geometric mean of surface staining (W6/32)","[4]; MCF-7, single agent for 3 days, no IFN-β pre-treatment, IFN-β 5000 Units/ml, PU-H71 0.3 mg/ml",61
same,"MHC Class I, geometric mean of surface staining (W6/32)","[4]; MCF-7, three days, IFN-β 5000 Units/ml, PU-H71 0.075-0.3 mg/ml",61
same,L243 (MHC Class II surface staining),[4]; [10],4.7
same,W6/32 (MHC Class I surface staining),[4]; [10],113.0
same,"Class I MHC, geometric mean of surface staining (W6/32)","[5]; 4 day IFN-β pre-treatment (5000 Units/ml), then 3 days with fresh IFN-β, with PU-H71 0.3 mg/ml where labelled (label IFN-β: no inhibitor)",129
same,"Class I MHC, geometric mean of surface staining (W6/32)","[5]; 4 day IFN-β pre-treatment (5000 Units/ml), then 3 days without IFN-β, with PU-H71 0.3 mg/ml where labelled (label IFN-β: no inhibitor)",139
same,L243 (MHC Class II surface staining),[5]; single agent,79.0
same,"Class I MHC, geometric mean of surface staining (W6/32)","[5]; single agent for 3 days, no IFN-β pre-treatment, IFN-β 5000 Units/ml, PU-H71 0.3 mg/ml",157
same,"MHC Class I, geometric mean of surface staining (W6/32)",[5]; [7],139
same,"MHC Class II, geometric mean of surface staining (L2443)",[5]; [7],160
same,"MHC Class I, geometric mean of surface staining (W6/32)","[5]; three days, IFN-β 5000 Units/ml, PU-H71 0.075-0.3 mg/ml",79
same,L243 (MHC Class II surface staining),"[6]; HELA, single agent",3.5
same,L243 (MHC Class II surface staining),[6]; [11],3.8
same,W6/32 (MHC Class I surface staining),[6]; [11],286.6
same,L243 (MHC Class II surface staining),"[6]; HeLa cells, Table 21, no pre-treatment, treatment as labelled",4
same,L243 (MHC Class II surface staining),"[6]; HeLa cells, Table 21, pre-treatment IFN-G (3 days), then treatment as labelled",185
same,L243 (MHC Class II surface staining),"[6]; HeLa cells, Table 21, substance given as pre-treatment (3 days) only, no subsequent treatment",6
same,"Class I MHC, geometric mean of surface staining (W6/32)","[6]; HeLa, then 3 days with fresh IFN-β",137
same,"Class I MHC, geometric mean of surface staining (W6/32)","[6]; HeLa, then 3 days without IFN-β",168
same,"Class II antigen level, sequential treatment","[6]; HeLa, IFN-gamma for 3 days, subsequently PU-H71",significantly greater than that achieved with IFN-gamma alone
same,"Class I expression, combination","[6]; HeLa, PU-H71 together with IFN-beta",do not show the synergy
same,"MHC Class II, geometric mean of surface staining (L2443)","[6]; HeLa, three days, IFN-β 5000 Units/ml, IFN-γ 100 ng/ml, PU-H71 0.3 mg/ml",19
same,"MHC Class I, geometric mean of surface staining (W6/32)","[6]; HeLa, three days, IFN-β 5000 Units/ml, IFN-γ 100 ng/ml, PU-H71 0.3",402
same,"MHC Class I, geometric mean of surface staining (W6/32)","[6]; HeLa, three days, IFN-β 5000 Units/ml, PU-H71 0.075-0.3",182
